According to patent US20090321255A1, “Drug-meter: Multiwell membrane-based potentiometric sensor for high throughput tests of drugs” (priority 2008, published 2009):
Counter-ions that a name gives are not always drawn.

Columns and labels:
[1] = Transmembrane potential calibration of multiwell biomimetic membrane sensor in buffer; type: physicochemical; details: pH 8
Source text: Multiwell plates used were commercial Millipore MultiScreen VM 0.05μ plates with nitrocellulose ultrafilters located at the base of each of the 96 wells of a plate. Though the number of the wells in the examples given in the disclosure is 96, as it is in the usual multiwell plates, it is not limited by this number and can be any from 2 and above.
All filters were impregnated by isopropyl myristate or some other lipid-like substances, like long chain fatty acids, their methyl and ethyl-esters, fats, etc. After impregnation the membranes should be translucent.
Each well requires as little as 200 μl of test solution. The small well's volume and the numerous wells (96) make the plates highly suitable as a part of the drug sensor, both for pharmaceutical testing in a buffer as well as for testing in biological fluids.
The tray cover can be is used as a base tray to put the reference buffer solution. Two Ag/AgCl electrodes with the salt bridges were used to measure transmembrane potential with common multimeter. It is possible to use one Ag/AgCl element as a measuring electrode and move it from one well to another. Another option is to have different measuring electrodes in different wells and separately to collect signals from each of them separately.
Kinetics of the process was registered with electrochemical station GPES. […]

[2] = Kinetics of transmembrane potential decrease due to drug transport through the membrane; type: physicochemical
Protocol: Kinetics of the process was registered with electrochemical station GPES. 5 mM Potassium Dihydrogen Phosphate solution in water was used as a buffer, filling the tray with the volume ˜30 ml. Known concentration of a drug (usually near 10^−5 M) could be added in the buffer as the reference. Membrane resistance after impregnation was several megaohms and usually decreases after modification of the membrane with drugs. Resistance is much lower when the membrane is broken. In this case the measurements can be conducted in other wells with the same test solution.
Using electrochemical station and computer it is possible to measure potential continuously in time, and for example, to study drug transport through the membrane. In this case it is possible to have different drugs or different types of membranes in different wells.
The steady state potential can decrease in time if one waits at least several minutes due to the slow drug transport through the membrane. After the experiments the membrane could be washed, dried, reimpregnated and after preequilibration used again.
At higher concentrations of the drug after the transmembrane potential reaches its maximum value, it slowly decreases with time due to the transport of the drug (FIG. 6). At pH 8 characteristic time was of the order ˜20 s and increased at more acidic pH to ˜100 s.

albumin = albumin (Homo sapiens, UniProt P02768); assay: Transmembrane potential calibration of the multiwell sensor in albumin solution; type: physicochemical
Sequence of albumin (P02768 25-609, species assumed): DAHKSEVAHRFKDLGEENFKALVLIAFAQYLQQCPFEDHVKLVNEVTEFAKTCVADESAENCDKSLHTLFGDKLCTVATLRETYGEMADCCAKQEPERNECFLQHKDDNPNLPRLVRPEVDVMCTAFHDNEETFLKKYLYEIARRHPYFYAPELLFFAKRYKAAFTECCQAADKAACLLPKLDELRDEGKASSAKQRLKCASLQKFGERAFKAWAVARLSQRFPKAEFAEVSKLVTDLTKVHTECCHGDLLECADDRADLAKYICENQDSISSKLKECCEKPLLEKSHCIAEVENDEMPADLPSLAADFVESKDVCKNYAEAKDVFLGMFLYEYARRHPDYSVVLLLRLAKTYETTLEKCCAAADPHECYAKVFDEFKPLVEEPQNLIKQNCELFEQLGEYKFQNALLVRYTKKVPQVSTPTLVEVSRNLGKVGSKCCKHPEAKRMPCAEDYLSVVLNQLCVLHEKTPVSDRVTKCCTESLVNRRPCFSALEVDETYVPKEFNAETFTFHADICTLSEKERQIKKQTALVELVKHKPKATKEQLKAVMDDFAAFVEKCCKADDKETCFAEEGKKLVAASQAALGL
Protocol: In some cases drugs concentration was measured in albumin solutions with protein concentration 0.022 g/cm^3 in buffer or Fetal Bovine Serum was used with concentration of serum albumin in the range 0.0187 g/cm^3-0.022 g/cm^3.
The base plate was filled with the buffer of reference concentration 5×10^−6 M of drug, and the wells with albumin-drug solution, with constant concentration of albumin, but varying concentration of drug.
In this case the measuring Ag/AgCl electrode was inserted into the wells with albumin solution with decreasing fenfluramine concentrations, then increasing fenfluramine concentrations, i.e. forward and backward using the same wells. The base solution was buffer. The method allows measurements of fenfluramine from 5×10^−5 to 5×10^−2M.
If different concentrations of rimantadine in albumin solution were preliminary prepared, preequilibrated and then added into the wells (method 2), a gradient was 59.9 mV per 10 fold change in drug concentration, which is similar to that with a buffer solution.
Chlorpromazine test solutions were injected into the wells and the reference solution of 5×10^−6 M Chlorpromazine in the buffer was added into the base. […] This effect is similar to the lysis of biological membranes and is related to the surface active properties of chlorpromazine. It was observed also with several other psychotropic substances, including several antidepressants. Those of the drugs which induce lysis at elevated concentrations also have nonspecific liver toxicity.

[3] = Biomimetic membrane lysis (screen for nonspecific liver toxicity); details: elevated drug concentration (chlorpromazine near 0.05 M, after some time)
[4] = bovine, fetal bovine serum, plasma or biological fluid
[5] = pH 7.4 buffer, pH 7.4, aqueous buffer
[6] = method 1: drug added directly into albumin solutions in the wells

Compound: CCNC(C)Cc1cccc(C(F)(F)F)c1.Cl (racemic) [Fenfluramine Hydrochloride, (+/−)-N-ethyl-α-methyl-m-(trifluoromethyl) phenethylamine HCl]
- solubility (Solubility; [4]): ~10 mM
- solubility (Solubility; [5]): ~50 mM
- time taken to reach the maximum potential [1]: less then a minute
- characteristic time of potential decrease due to transport of the drug ([2]; more acidic pH): ~100 s
- characteristic time of potential decrease due to transport of the drug ([2]; pH 8, higher drug concentrations (FIG. 6: 10^−3 M)): ~20 s

Compound: CN(C)CCCN1c2ccccc2Sc2ccc(Cl)cc21 [Chlorpromazine Hydrochloride, 2-chloro-10-[3-dimethylaminopropyl] phenothiazine]
- potentials in buffer versus albumin solutions (drug binding property of albumin) (albumin; pH2, reference 5×10^−6 M drug in buffer): higher with buffer than with albumin solutions

Compound: CC(N)C12CC3CC(CC(C3)C1)C2.Cl (stereo not drawn) [Rimantadine Hydrochloride, 1-(1-Adamantyl)ethylamine hydrochloride]
- solubility (Solubility; [4]): ~10 mM
- solubility (Solubility; [5]): ~50 mM
- membrane lysis / loss of transmembrane potential [3]: did not result in the membrane lysis
- slope of calibration curve (albumin; [6]): 19.3 mV per 10 fold change in Rimantadine concentration
- time for the potential to reach the steady state (albumin; [6]): at least an hr
- gradient of calibration curve (albumin; method 2: drug in albumin solution prepared, preequilibrated, then added into wells): 59.9 mV per 10 fold change in drug concentration
